How the values were obtained:
ITK = biological target: T1, ITK (Homo sapiens, UniProt Q08881); assay: FlashPlate ITK protocol for ITK inhibition determination (ITK autophosphorylation, [γ-33P]ATP); type: biochemical; conditions: MBP-tagged ITK, read-out: IC50 (enzyme inhibition)-
T1 construct: made in house
T1 sequence (Q08881 1-620): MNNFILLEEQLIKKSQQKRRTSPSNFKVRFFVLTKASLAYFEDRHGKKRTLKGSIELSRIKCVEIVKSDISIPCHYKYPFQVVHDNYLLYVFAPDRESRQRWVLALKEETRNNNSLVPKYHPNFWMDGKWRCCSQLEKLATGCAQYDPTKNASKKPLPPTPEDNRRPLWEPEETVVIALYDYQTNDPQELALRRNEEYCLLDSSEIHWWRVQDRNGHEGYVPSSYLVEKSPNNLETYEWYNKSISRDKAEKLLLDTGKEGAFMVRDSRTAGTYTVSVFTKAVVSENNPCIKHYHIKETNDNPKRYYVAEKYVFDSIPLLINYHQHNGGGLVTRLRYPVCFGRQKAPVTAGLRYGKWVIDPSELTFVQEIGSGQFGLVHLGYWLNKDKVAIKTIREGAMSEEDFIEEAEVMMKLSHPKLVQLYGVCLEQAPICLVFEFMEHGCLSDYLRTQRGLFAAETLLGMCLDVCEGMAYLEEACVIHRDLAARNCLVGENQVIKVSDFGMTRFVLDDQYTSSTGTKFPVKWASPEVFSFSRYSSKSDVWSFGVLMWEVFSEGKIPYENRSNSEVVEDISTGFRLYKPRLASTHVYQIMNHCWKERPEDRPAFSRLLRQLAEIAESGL
Procedure: ITK kinase is produced with an N-terminal Maltose Binding Protein tag (MW=˜114 kDa) using a Baculovirus expression system. The transfer of radioactive [γ-^33P] phosphate from [γ-^33P]ATP to ITK during the autophosphorylation of ITK is measured by scintillation counting. Streptavidin-coated FlashPlate Plus™ 384 well microplates (PerkinElmer Life Sciences) are designed for in-plate radiometric assays. The interior of each well is permanently coated with a thin layer of scintillant and a covalently bound layer of Streptavidin. ITK is incubated with [γ-^33P]ATP, biotinylated anti-MBP antibody (Cell Signaling Technology™) and test compounds in a 384-well Streptavidin-coated FlashPlate. The biotinylated anti-MBP binds tightly to the MBP-tagged ITK and cross-links it to Streptavidin on the plate surface. Unreacted ^33P-ATP is washed away and ^33P-phosphorylated ITK is measured when the [γ-^33P] incorporated into ITK stimulates the scintillant on the well to emit light. Radioactivity is assessed in a Packard
TopCount scintillation counter. Reagents are pipetted and dispensed using Beckman Biomek robotic equipment. Test compounds (2 μl per well) are pre-diluted from 1 mM 100% dimethyl sulfoxide solutions into water containing 30% dimethyl sulfoxide to produce dose response curves (10 point curves from (final) 30 μM to ˜1 nM); all tests are performed in duplicate. Background binding is assessed by substituting the enzyme inhibitor EDTA (25 mM final concentration) for test compound and maximal binding is assessed by inclusion of assay buffer instead of compound. Test compounds are added to the wells first (2 μl) followed by 10 μl enzyme solution in assay buffer. After 30 minutes pre-incubation, all other reagents are added in a 10 μl volume. The final reagent concentrations/well are as follows: 20 nM enzyme, 0.25 μCi [γ-^33P]ATP, assay buffer: 20 mM HEPES (pH 7.5), 0.15 M NaCl, 3 mM MgCl2, 3 mM MnCl2, 0.01% Triton X-100, 1 mM DTT, 5% glycerol and 0.01% γ-globulin. The plate is incubated at room temperature (RT) for 60 minutes for the kinase reaction. The reaction is stopped with 20 μl of 50 mM EDTA and the biotinylated anti-MBP is allowed to bind to the ITK and the Streptavidin for a further 60 minutes at RT. The unbound reagents are washed away with 2×100 μl phosphate-buffered saline (PBS). Radioactivity is measured for 45 sec/well.

IC50 (ITK): 224 nM
melting point: 234 to 236 °C
SMILES: COc1ccc2[nH]c(-c3n[nH]c4ccsc34)cc2n1 [Example 60, 5-Methoxy-2-(1H-thieno[3,2-c]pyrazol-3-yl)-1H-pyrrolo[3,2-b]pyridine]

Source: patent US7928231B2, “Thienopyrazoles” (priority 2003, dated 2011)
